Measured values from patent publication US6953786B2, “Compositions comprising plant-derived polyphenolic compounds and inhibitors of reactive oxygen species and methods of using thereof” (The Regents of the University of California, priority 2002, dated 2005).
Marks after values point to notes of the source that are not given here.

Columns and labels:
Mia PACA-2 = experiment: Pancreatic cancer growth assay in nude mouse model; assay type: in vivo
Description: To determine the effect of a polyphenolic compound on pancreatic cancer cell growth, the following assay using a nude mouse model was conducted. Specifically, the effect of quercetin was tested in a nude mouse model of pancreatic cancer using the highly malignant pancreatic cancer cell line, Mia PACA-2.
Tumor induction in nude mice was performed as described by Hotz HC, et al. (2001) Pancreas 22:113-121, which is herein incorporated by reference. For subcutaneous tumor formation, 1×10^7 Mia PACA-2 tumor cells were subcutaneously injected in the medio-dorsal region of a nude mouse. After 4 weeks a small tumor fragment, about 1 mm in diameter, was removed from the subcutaneous tumor and transplanted into the pancreatic tail of mice of two study groups. Ten days after tumor transplantation, treatment with or without quercetin was initiated. The treated animals received daily intraperitoneal injections of 1.3 mg quercetin dissolved in DMSO; the control group received DMSO only by intraperitoneal injection. The animals were sacrificed once clinical tumor signs including severe cachexia ascites with abdominal distension or heavy tumor burden, larger than 1.5 cm, became apparent. Tumor volume was calculated as described by Hotz H C, et al. (2001) as 0.5×length×width×depth. Metastatic tumor spread was determined macroscopically at autopsy in all thoracic, abdominal, retroperitoneal and pelvic organs. All macroscopic suspicious lesions were further confirmed as tumor dissemination by microscopic analysis. Each value in the metastatic score represented a different organ of metastatic tumor spread.

NF-κB [1] = experiment: NF-κB DNA binding activity (EMSA / gel shift); assay type: cell-based, human; conditions: for NF-κB activation (DNA binding): Mia PACA-2, 24 hours, no serum, polyphenols 100 μM, MG-132 20 μM; for NF-κB activation caused by serum: Mia PACA-2, 72 hours, with serum, DPI 15 μM, trans-resveratrol 100 μM, genistein 100 μM, LY294002 50 μM
Description: In order to determine the role of activated NF-κB in the regulation of apoptosis caused by the polyphenolic compound, the following assay was conducted. BSp73AS cells were cultured for 6 hours and Mia PACA-2 cells were cultured in the absence of serum or growth factors for 24 hours in the absence (controls) or presence of rutin, quercetin, trans-resveratrol, or genistein, each at 100 μM and 20 μM proteosome inhibitor MG-132. Nuclear proteins were isolated and analyzed for NF-κB DNA binding activity with electrophoretic mobility shift assay (EMSA).
Specifically, aliquots of nuclear extracts with equal amount of protein, about 2 to about 10 μg, were mixed in 20 μl reactions with a buffer comprising 10 mM HEPES (pH 7.6), 50 mM KCl, 0.1 mM EDTA, 1 mM DTT, 10% (vol/vol) glycerol and 3 μg poly[d (I-C)]. After aliquots were equilibrated on ice for 5 minutes, binding reactions were stared by addition of 20-60,000 counts/min (20 fM) of ^32P-labeled DNA probes and allowed to proceed for 25-30 minutes at room temperature or up to 1 hour on ice. The oligonucleotide probe
containing the κB binding motif (underlined) was annealed to the complementary oligonucleotide with a 5′-G overhang and end-labeled using Klenow DNA polymerase I. The samples were electrophoresed at room temperature in 0.5×TBE buffer (1×TBE 89 mM Tris base, 89 mM boric acid and 2 mM EDTA) on nondenaturing 4.5% polyacrylamide gel at 200 V. Gels were dried and directly analyzed in the PhosphorImager (Molecular Dynamics, Sunnyvale, Calif.). The experiment was repeated twice.
To study the effects of combinations of DPI and polyphenolic compounds on serum-induced activation of NF-κB and protection from apoptosis, the following assay was conducted. Mia PACA-2 cells were cultured for 72 hours in the presence of serum with or without 100 μM trans-resveratrol, 15 μM DPI, a combination of trans-resveratrol, 100 μM genistein, or a combination of genistein and DPI. NF-κB binding activity was measured in nuclear extracts by gel shift assay as described above.
To determine the effects of LY29400 and DPI on NF-κB activation, Mia PACA-2 cells were cultured for 72 hours in the presence of serum and 15 μM DPI with or without 50 μM LY294002. NF-κB DNA binding activity was measured in nuclear extracts by gel shift assay as described above.

caspase-3 = experiment: Caspase-3 (DEVDase) activity, fluorogenic assay with DEVD-AMC; assay type: cell-based, human; conditions: Mia PACA-2, up to 24 hours, 100 μM, no serum (FIG. 7B)
Description: To determine whether a polyphenolic compound activates caspase-3 activity in a time-dependent manner, the following assay was conducted. BSp73AS cells were cultured for 0, 1, 3, and 6 hours and Mia PACA-2 cells were cultured in the absence of serum or growth factors for 0, 1, 4, 6, and 24 hours in the presence of 100 μM or quercetin, trans-resveratrol, rutin, or control. Caspase-3 activity was measured in cell lysates with a fluorogenic assay using DEVD-AMC as a substrate. The results were normalized to the DEVDase activity in untreated cells.
To determine the role of caspases in the effects of combinations of agents on apoptosis, the effects of caspase-3 activity (DEVDase activity) as well as the effect of the broad spectrum caspase inhibitor, Z-VAD, on apoptosis was measured. Specifically, Mia PACA-2 cells were cultured for 72 hours in the presence of serum with or without 100 μM Z-VAD, 15 μM DPI, 100 μM trans-resveratrol, 100 μM genistein, a combination of trans-resveratrol and DPI, and a combination of genistein and DPI. DEVDase activity was measured in whole cell lysates with a fluorimetric assay.
A fluorimetric assay for caspase-3 activity was conducted. […] Cytosolic protein extracts (supernatants) were collected, protein concentrations were determined and the extracts were aliquoted and stored at −80° C. […] The reaction was started by addition of caspase-3 substrate, the readings were taken at 0, 60, 90, and 120 minutes. Fluorescence was calibrated using a standard curve for AMC. The data were expressed as mol AMC/mg protein/min.
Mia PACA-2 cells were cultured in the absence of serum or growth factors for 24 hours in the presence or absence of quercetin (100 μM), trans-resveratrol (100 μM), Z-VAD FMK (50 μM), cyclosporin A (5 μM) and/or aristolochic acid (50 μM). […] The reaction was started by addition of caspase-3 substrate, the readings were taken at 0, 60, 90, and 120 minutes. Fluorescence was calibrated using a standard curve for AMC. […] The data were expressed as mol AMC/mg protein/min. […]

NF-κB [2] = experiment: NF-κB DNA binding activity (EMSA); assay type: cell-based, rat; conditions: BSp73AS, 6 hours; polyphenols 100 μM, MG-132 20 μM
Description: In order to determine the role of activated NF-κB in the regulation of apoptosis caused by the polyphenolic compound, the following assay was conducted. BSp73AS cells were cultured for 6 hours and Mia PACA-2 cells were cultured in the absence of serum or growth factors for 24 hours in the absence (controls) or presence of rutin, quercetin, trans-resveratrol, or genistein, each at 100 μM and 20 μM proteosome inhibitor MG-132. Nuclear proteins were isolated and analyzed for NF-κB DNA binding activity with electrophoretic mobility shift assay (EMSA). Specifically, aliquots of nuclear extracts with equal amount of protein, about 2 to about 10 μg, were mixed in 20 μl reactions with a buffer comprising 10 mM HEPES (pH 7.6), 50 mM KCl, 0.1 mM EDTA, 1 mM DTT, 10% (vol/vol) glycerol and 3 μg poly[d (I-C)]. After aliquots were equilibrated on ice for 5 minutes, binding reactions were stared by addition of 20-60,000 counts/min (20 fM) of ^32P-labeled DNA probes and allowed to proceed for 25-30 minutes at room temperature or up to 1 hour on ice. The oligonucleotide probe containing the κB binding motif (underlined) was annealed to the complementary oligonucleotide with a 5′-G overhang and end-labeled using Klenow DNA polymerase I. The samples were electrophoresed at room temperature in 0.5×TBE buffer (1×TBE 89 mM Tris base, 89 mM boric acid and 2 mM EDTA) on nondenaturing 4.5% polyacrylamide gel at 200 V. Gels were dried and directly analyzed in the PhosphorImager (Molecular Dynamics, Sunnyvale, Calif.). The experiment was repeated twice.

[3] = nude mice with Mia PACA-2 tumor in pancreatic tail, daily i.p. 1.3 mg quercetin, means ± SE, n=8

NF-κB activation (DNA binding) (NF-κB [1]) | Compound | growth of pancreatic cancer in a nude mouse model (Mia PACA-2) | NF-κB activation caused by serum (NF-κB [1]) | Number of metastatic sites (organs with metastatic lesions) (Mia PACA-2; [3]) | Tumor volume, cm^3 (Mia PACA-2; [3]) | Number of metastatic sites (organs with metastatic lesions) (Mia PACA-2; nude mice with Mia PACA-2 tumor in pancreatic tail, daily i.p. 1.3 mg quercetin, means ± SE, n=8, listed as Quercetin) | Survival (Mia PACA-2; nude mice with Mia PACA-2 tumor transplanted into pancreatic tail, daily intraperitoneal 1.3 mg quercetin in DMSO, means ± SE, n=8, days after transplantation until animal appeared ill from abdominal distension) [days] | caspase-3 activation (caspase-3) | NF-κB activation (DNA binding) (NF-κB [2])
has no effect on NF-κB | O=c1c(-c2ccc(O)cc2)coc2cc(O)cc(O)c12 [genistein] | inhibition of growth | not inhibited |  |  |  |  |  | 
inhibit NF-κB activation | Oc1ccc(/C=C/c2cc(O)cc(O)c2)cc1 [trans-resveratrol] |  | not inhibited |  |  |  |  | caused caspase-3 activation | inhibit NF-κB activation

Compound | NF-κB activation (DNA binding) (NF-κB [1]) | growth of pancreatic cancer in a nude mouse model (Mia PACA-2) | NF-κB activation caused by serum (NF-κB [1]) | Number of metastatic sites (organs with metastatic lesions) (Mia PACA-2; [3]) | Tumor volume, cm^3 (Mia PACA-2; [3]) | Number of metastatic sites (organs with metastatic lesions) (Mia PACA-2; nude mice with Mia PACA-2 tumor in pancreatic tail, daily i.p. 1.3 mg quercetin, means ± SE, n=8, listed as Quercetin) | Survival (Mia PACA-2; nude mice with Mia PACA-2 tumor transplanted into pancreatic tail, daily intraperitoneal 1.3 mg quercetin in DMSO, means ± SE, n=8, days after transplantation until animal appeared ill from abdominal distension) [days] | caspase-3 activation (caspase-3) | NF-κB activation (DNA binding) (NF-κB [2])
O=c1c(O)c(-c2ccc(O)c(O)c2)oc2cc(O)cc(O)c12 [quercetin] | inhibit NF-κB activation | inhibition of growth |  | 0.6 | 1.56 ± 0.27* cm^3 | 0.62 ± 0.26 | 75.00 ± 2.50 | caused caspase-3 activation | inhibit NF-κB activation
